Results reported in ChEMBL document CHEMBL1138334, “From astemizole to a novel hit series of small-molecule somatostatin 5 receptor antagonists via GPCR affinity profiling” (J Med Chem, 2007).

Key:
[1] = target: Voltage-gated inwardly rectifying potassium channel KCNH2 (Homo sapiens, UniProt Q12809); assay: Binding affinity to human ERG channel
Histamine H1 receptor = Histamine H1 receptor (Homo sapiens, UniProt P35367); assay: Binding affinity to human histamine H1 receptor
[2] = target: Somatostatin receptor type 5 (Homo sapiens, UniProt P35346); assay: Binding affinity to human SST5R
Chain of Somatostatin receptor type 5 (P35346 whole entry): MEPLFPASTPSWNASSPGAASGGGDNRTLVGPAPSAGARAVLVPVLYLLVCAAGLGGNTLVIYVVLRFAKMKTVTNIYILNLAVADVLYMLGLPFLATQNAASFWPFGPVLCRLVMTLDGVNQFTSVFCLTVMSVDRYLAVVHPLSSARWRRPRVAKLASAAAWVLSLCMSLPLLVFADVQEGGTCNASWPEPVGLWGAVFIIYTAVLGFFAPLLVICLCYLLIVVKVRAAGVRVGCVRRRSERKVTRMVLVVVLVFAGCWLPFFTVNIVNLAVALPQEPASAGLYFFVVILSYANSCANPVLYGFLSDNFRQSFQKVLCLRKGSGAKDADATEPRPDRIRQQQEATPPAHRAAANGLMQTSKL

[3] = target: Somatostatin receptor type 1 (Homo sapiens, UniProt P30872); assay: Binding affinity to human SST1R
Chain of Somatostatin receptor type 1 (P30872 whole entry): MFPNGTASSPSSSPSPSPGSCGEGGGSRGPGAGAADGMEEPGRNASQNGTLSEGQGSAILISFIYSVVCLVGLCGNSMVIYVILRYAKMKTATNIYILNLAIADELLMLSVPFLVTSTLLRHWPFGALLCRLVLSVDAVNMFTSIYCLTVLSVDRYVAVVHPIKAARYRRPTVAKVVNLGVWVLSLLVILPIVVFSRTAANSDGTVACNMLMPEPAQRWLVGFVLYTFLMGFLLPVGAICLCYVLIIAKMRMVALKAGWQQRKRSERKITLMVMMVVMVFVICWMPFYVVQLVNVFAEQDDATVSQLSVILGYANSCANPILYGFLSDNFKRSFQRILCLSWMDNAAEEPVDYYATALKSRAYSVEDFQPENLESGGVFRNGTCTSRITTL

[4] = target: Somatostatin receptor type 3 (Homo sapiens, UniProt P32745); assay: Binding affinity to human SST3R
Chain of Somatostatin receptor type 3 (P32745 whole entry): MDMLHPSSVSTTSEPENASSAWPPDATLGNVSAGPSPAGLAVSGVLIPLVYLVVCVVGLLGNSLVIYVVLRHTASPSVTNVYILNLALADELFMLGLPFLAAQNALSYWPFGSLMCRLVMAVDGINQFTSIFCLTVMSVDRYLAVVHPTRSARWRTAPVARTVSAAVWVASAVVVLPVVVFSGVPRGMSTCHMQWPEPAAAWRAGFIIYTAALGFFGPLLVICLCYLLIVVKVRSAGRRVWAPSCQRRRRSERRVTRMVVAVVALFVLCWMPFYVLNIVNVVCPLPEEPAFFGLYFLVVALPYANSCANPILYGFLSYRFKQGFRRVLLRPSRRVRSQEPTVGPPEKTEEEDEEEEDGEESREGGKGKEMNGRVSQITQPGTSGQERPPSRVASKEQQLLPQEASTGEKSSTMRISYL

[5] = target: Somatostatin receptor type 2 (Homo sapiens, UniProt P30874); assay: Binding affinity to human SST2R
Chain of Somatostatin receptor type 2 (P30874 whole entry): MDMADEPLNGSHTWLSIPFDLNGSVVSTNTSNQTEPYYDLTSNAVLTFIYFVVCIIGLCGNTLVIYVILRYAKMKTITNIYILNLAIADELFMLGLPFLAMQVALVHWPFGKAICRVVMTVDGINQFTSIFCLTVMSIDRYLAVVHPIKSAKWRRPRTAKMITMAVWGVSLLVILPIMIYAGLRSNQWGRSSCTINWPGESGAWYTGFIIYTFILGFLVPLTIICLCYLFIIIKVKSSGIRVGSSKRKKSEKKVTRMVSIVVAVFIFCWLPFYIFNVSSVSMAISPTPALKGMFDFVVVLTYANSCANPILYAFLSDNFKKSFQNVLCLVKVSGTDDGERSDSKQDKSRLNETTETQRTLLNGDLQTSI

Chain of Histamine H1 receptor (P35367 whole entry): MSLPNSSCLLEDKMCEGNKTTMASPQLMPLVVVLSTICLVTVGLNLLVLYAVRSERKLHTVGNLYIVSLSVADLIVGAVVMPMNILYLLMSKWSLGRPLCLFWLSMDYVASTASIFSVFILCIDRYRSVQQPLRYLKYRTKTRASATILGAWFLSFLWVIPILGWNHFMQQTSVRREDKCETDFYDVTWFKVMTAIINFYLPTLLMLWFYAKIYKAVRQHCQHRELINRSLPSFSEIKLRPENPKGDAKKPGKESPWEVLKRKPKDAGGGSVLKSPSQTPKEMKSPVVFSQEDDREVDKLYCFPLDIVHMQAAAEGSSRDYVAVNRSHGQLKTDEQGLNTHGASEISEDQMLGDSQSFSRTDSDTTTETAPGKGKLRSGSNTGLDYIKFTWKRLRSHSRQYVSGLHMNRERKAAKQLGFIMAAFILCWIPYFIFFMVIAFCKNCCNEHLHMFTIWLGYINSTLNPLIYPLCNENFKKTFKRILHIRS
Chain of Voltage-gated inwardly rectifying potassium channel KCNH2 (Q12809 whole entry): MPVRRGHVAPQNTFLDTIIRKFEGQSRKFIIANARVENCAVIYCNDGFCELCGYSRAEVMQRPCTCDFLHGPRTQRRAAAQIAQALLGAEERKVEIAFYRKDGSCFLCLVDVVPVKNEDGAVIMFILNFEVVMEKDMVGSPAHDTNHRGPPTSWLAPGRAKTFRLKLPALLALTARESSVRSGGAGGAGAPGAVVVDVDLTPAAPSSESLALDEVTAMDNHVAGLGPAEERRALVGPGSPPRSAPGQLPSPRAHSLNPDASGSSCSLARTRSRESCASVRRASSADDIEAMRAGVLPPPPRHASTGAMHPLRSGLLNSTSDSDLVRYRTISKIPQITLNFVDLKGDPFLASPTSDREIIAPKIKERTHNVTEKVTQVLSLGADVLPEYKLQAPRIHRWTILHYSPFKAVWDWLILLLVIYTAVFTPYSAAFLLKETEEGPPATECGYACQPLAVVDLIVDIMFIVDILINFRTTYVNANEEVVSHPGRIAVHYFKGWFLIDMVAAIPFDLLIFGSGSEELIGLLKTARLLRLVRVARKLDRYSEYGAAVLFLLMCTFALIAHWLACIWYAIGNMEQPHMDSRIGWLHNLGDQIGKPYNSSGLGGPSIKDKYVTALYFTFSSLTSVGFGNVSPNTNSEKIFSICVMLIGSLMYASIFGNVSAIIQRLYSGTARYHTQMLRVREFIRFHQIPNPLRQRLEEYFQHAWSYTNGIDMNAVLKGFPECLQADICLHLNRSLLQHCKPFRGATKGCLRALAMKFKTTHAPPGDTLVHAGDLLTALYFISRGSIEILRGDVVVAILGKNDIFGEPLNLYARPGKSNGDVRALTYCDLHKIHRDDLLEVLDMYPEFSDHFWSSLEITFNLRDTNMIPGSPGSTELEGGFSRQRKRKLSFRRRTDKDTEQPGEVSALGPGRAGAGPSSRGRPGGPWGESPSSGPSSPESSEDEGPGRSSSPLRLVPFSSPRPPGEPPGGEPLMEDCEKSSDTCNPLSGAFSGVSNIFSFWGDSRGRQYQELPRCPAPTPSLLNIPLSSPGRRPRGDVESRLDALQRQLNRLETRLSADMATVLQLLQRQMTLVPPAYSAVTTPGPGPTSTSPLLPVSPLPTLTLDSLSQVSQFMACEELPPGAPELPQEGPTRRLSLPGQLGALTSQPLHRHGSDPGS

Ki (Histamine H1 receptor)	Ki [2]	Compound	other results
> 5000 nM	60 nM	CCOc1cc(CN2CCC(NC(=O)c3cccc(S(C)(=O)=O)c3)CC2)ccc1Cl	IC50 [1]: 1300 nM
	20 nM	COc1cc(CN2CCC(NC(=O)c3ccc(C(C)(C)C)cc3)CC2)c(OC)c2ccccc12	
	40 nM	COc1cc(CN2CCC(NC(=O)c3cncc(C)c3)CC2)c(OC)c2ccccc12	
270 nM	20 nM	CCOc1cc(CN2CCC(NC(=O)c3cncc(C)c3)CC2)ccc1Cl	Ki [3]: 5100 nM; Ki [4]: > 10000 nM; Ki [5]: > 10000 nM
	120 nM	COc1cc(CN2CCC(NC(=O)c3ccccc3)CC2)c(OC)c2ccccc12	

Compound	Ki (Histamine H1 receptor)	Ki [2]	other results
COc1cc(CN2CCC3(CC2)OC(=O)c2ccccc23)c(OC)c2ccccc12		1100 nM	
